# Source: patent publication US20230286973A1, “PROTEIN SECRETION INHIBITORS” (KEZAR LIFE SCIENCES, priority 2020, published 2023)
# Where two headings read alike, the source gives them in different places.
# Columns and labels:
# [1] = test system: multiple myeloma cell line NCI-H929; assay: H929 Cell Viability Assay; format: cell-based, human; conditions: Homo sapiens, NCI-H929, 48 h, NCI-H929 cells, Celltiter-Glo
# Method in brief: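 NCI-H929 cells in RPMI 1640 with 10% FBS were treated with compound dilutions for 48 h at 37° C, 5% CO2. Viability was read by CellTiter-Glo luminescence. Undefined stereocentres denote stereoisomer mixtures.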
# [2] = Liver Microsome Stability Assay (rat); conditions: rat liver microsomes, with NADPH, 1.0 uM compound
# Description: (§1) Stability of a compound was assessed in the presence of liver microsomes from various sources—mouse, rat, monkey and human liver microsomes. 1.0 uM compound, 0.4% DMSO in 0.1 M Potassium Phosphate with 1.0 mg/mL liver microsomes, were incubated at 37° C. with or without 1 mM NADPH. The samples were quenched at 0, and 30 minutes.
# [3] = test system: IL-2-FL/Gaussia Luciferase; assay: Dox Induced IL2-FL-Gluc Assay; format: cell-based; conditions: for IC50: 24 hr Dox induction, 293FRT/TO cells, read-out: 24 hr Dox Inducible IL2FLGluc 293FRT/TO: Mean IC50; for 24 hr Dox Inducible IL2FLGluc 293FRT/TO: IL2/PD1: ratio of IL2FLGluc IC50 to PD1ssGluc IC50
# Method in brief: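 Stable Flp-In 293 T-REx cells carrying doxycycline-inducible full-length IL-2 (aa 1-153) fused to Gaussia luciferase, plated the day before assay. Compound dilutions added in medium containing doxycycline, incubated at 37 °C, 5% CO2. Undefined stereocentres mean data refer to stereoisomer mixtures.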
# [4] = test system: HER3-ss+4aa/Gaussia Luciferase; assay: Dox-Induced Her3-ss-Gluc Assay; format: cell-based; conditions: 24 hr Dox induction, 293FRT/TO cells, read-out: 24 hr Dox Inducible Her3(ss + 4)Gluc 293FRT/TO: Mean IC50
# Method in brief: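 Stable Flp-In 293 T-REx cells carried a doxycycline-inducible HER3 signal sequence (+4 aa) fused to Gaussia luciferase. Cells were plated the day before the assay. Compound dilutions in DMSO/media containing doxycycline were then added, and plates were incubated at 37 °C, 5% CO2.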
# [5] = test system: TNFα-FL/Gaussia Luciferase; assay: Dox Induced TNFα-FL-Gluc Assay; format: cell-based; conditions: for IC50: 24 hr Dox induction, 293FRT/TO cells, read-out: 24 hr Dox Inducible TNFaFLGluc 293FRT/TO: Mean IC50; for 24 hr Dox Inducible TNFaFLGluc 293FRT/TO: TNF/PD1: ratio of TNFaFLGluc IC50 to PD1ssGluc IC50
# Method in brief: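 Flp-In 293 T-REx cells stably carrying doxycycline-inducible full-length TNFα (aa 1-233) fused to Gaussia luciferase. Plated the day before, then treated with compound dilutions in doxycycline-containing medium at 37° C, 5% CO2.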
# [6] = Liver Microsome Stability Assay (mouse); conditions: mouse liver microsomes, with NADPH, 1.0 uM compound
# Description: as §1
# [7] = Liver Microsome Stability Assay (human); conditions: human liver microsomes, with NADPH, 1.0 uM compound
# Description: as §1
# [8] = Liver Microsome Stability Assay (monkey); conditions: monkey liver microsomes, with NADPH, 1.0 uM compound
# Description: as §1
# [9] = test system: multiple myeloma cell line U266B1; assay: U266 Cell Viability Assay; format: cell-based, human; conditions: Homo sapiens, U-266, 48 h, U266B1 cells, Celltiter-Glo
# Method in brief: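 U266B1 multiple myeloma cells in RPMI 1640/10% FBS were treated with compound dilutions for 48 h at 37 °C, 5% CO2. Viability was measured by CellTiter-Glo luminescence; compounds drawn without stereochemistry were tested as stereoisomer mixtures.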
# [10] = test system: PD1-ss+10aa/Gaussia Luciferase; assay: Dox-Induced PD1-ss-Gluc Assay; format: cell-based; conditions: 24 hr Dox induction, 293FRT/TO cells, read-out: 24 hr Dox Inducible PD1ssGluc 293FRT/TO: Mean IC50
# Method in brief: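 Doxycycline-induced expression of a PD1-ss+10aa/Gaussia luciferase reporter is measured in stable Flp-In 293 T-REx cells. Compound dilutions containing doxycycline are added one day after plating and incubated at 37 °C, 5% CO2. Values for unassigned stereocentres refer to stereoisomer mixtures.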
# [11] = '<=>' given where both are I.A.
Structure (SMILES),EC50 [1] [nM],Liver Microsome Stability (Multiple Species): Rat - % Remaining after 30 min w/NADPH [2] [%],IC50 ([3]; mean) [nM],IC50 ([4]; mean) [nM],IC50 ([5]; mean) [nM],Liver Microsome Stability (Multiple Species): Mouse - % Remaining after 30 min w/NADPH [6] [%],Liver Microsome Stability (Multiple Species): Human - % Remaining after 30 min w/NADPH [7] [%],Liver Microsome Stability (Multiple Species): Monkey - % Remaining after 30 min w/NADPH [8] [%],EC50 [9] [nM],IC50 ([10]; mean) [nM],IC50 [3] [nM],IC50 [4] [nM],IC50 [5] [nM],IC50 [10] [nM],"24 hr Dox Inducible IL2FLGluc 293FRT/TO: IL2/PD1 [3, 11]","24 hr Dox Inducible TNFaFLGluc 293FRT/TO: TNF/PD1 [5, 11]",24 hr Dox Inducible IL2FLGluc 293FRT/TO: IL2/PD1 [3],24 hr Dox Inducible TNFaFLGluc 293FRT/TO: TNF/PD1 [5]
"CN(C)C(=O)CCCCn1cccc1C(=O)Nc1nc([C@H]2CCCN2c2ccccc2)cs1 [Compound C60, (R)-1-(5-(dimethylamino)-5-oxopentyl)-N-(4-(1-phenylpyrrolidin-2-yl)thiazol-2-yl)-1H-pyrrole-2-carboxamide]",> 25000,6.4,> 25000,> 25000,> 25000,0.25,0.05,0.09,> 25000,8590,–,–,–,–,2.9,>2.91,–,–
"C[C@H](N)c1ccc(N2CCC[C@@H]2c2csc(NC(=O)c3cccn3Cc3ccnc(F)c3)n2)cc1 [Compound A74, N-(4-((R)-1-(4-((S)-1-aminoethyl)phenyl)pyrrolidin-2-yl)thiazol-2-yl)-1-((2-fluoropyridin-4-yl)methyl)-1H-pyrrole-2-carboxamide]",3870,98.3,–,–,–,94.3,38.6,38.5,6130,–,367,232,2800,118,–,–,3.1,23.7
"O=C(Nc1nc(/C=C/c2cn(C3CCCCC3)cn2)cs1)c1cccn1Cc1ccnc(F)c1 [Compound B55, (E)-N-(4-(2-(1-cyclohexyl-1H-imidazol-4-yl)vinyl)thiazol-2-yl)-1-((2-fluoropyridin-4-yl)methyl)-1H-pyrrole-2-carboxamide]",> 20800,0.3,–,–,–,1.7,0.41,0.4,> 25000,–,2010,1170,6620,25.3,–,–,79,262
"Cc1c(/C=C/c2csc(NC(=O)c3cccn3Cc3ccncc3)n2)ncn1C(C)C [Compound B58, (E)-N-(4-(2-(1-isopropyl-5-methyl-1H-imidazol-4-yl)vinyl)thiazol-2-yl)-1-(pyridin-4-ylmethyl)-1H-pyrrole-2-carboxamide]",15400,1.67,–,–,–,2.14,0.28,5.89,18400,–,> 19700,12400,2310,24.4,–,–,>810,952
"NC(=O)N1CCC(Oc2ccc(N3CCC[C@@H]3c3csc(NC(=O)c4cccn4Cc4ccnc(F)c4)n3)cc2)CC1 [Compound A135, (R)-4-(4-(2-(2-(1-((2-fluoropyridin-4-yl)methyl)-1H-pyrrole-2-carboxamido)thiazol-4-yl)pyrrolidin-1-yl)phenoxy)piperidine-1-carboxamide]",692,57.9,–,–,–,56.5,67.1,32.1,> 25000,–,52.5,34.2,512,15.2,–,–,3.4,33.6
"O=C(Nc1nc([C@H]2CCCN2c2ccc(CO)cc2)cs1)c1cccn1Cc1ccnc(F)c1 [Compound A113, (R)-1-((2-fluoropyridin-4-yl)methyl)-N-(4-(1-(4-(hydroxymethyl)phenyl)pyrrolidin-2-yl)thiazol-2-yl)-1H-pyrrole-2-carboxamide]",615,0.64,–,–,–,4.74,0.61,1.3,> 25000,–,17.9,22.6,136,9.82,–,–,1.8,13.9

# The next lines start with results.
EC50 [1] [nM],Liver Microsome Stability (Multiple Species): Rat - % Remaining after 30 min w/NADPH [2] [%],IC50 ([3]; mean) [nM],IC50 ([4]; mean) [nM],IC50 ([5]; mean) [nM],Liver Microsome Stability (Multiple Species): Mouse - % Remaining after 30 min w/NADPH [6] [%],Liver Microsome Stability (Multiple Species): Human - % Remaining after 30 min w/NADPH [7] [%],Liver Microsome Stability (Multiple Species): Monkey - % Remaining after 30 min w/NADPH [8] [%],EC50 [9] [nM],IC50 ([10]; mean) [nM],IC50 [3] [nM],IC50 [4] [nM],IC50 [5] [nM],IC50 [10] [nM],Structure (SMILES),"24 hr Dox Inducible IL2FLGluc 293FRT/TO: IL2/PD1 [3, 11]","24 hr Dox Inducible TNFaFLGluc 293FRT/TO: TNF/PD1 [5, 11]",24 hr Dox Inducible IL2FLGluc 293FRT/TO: IL2/PD1 [3],24 hr Dox Inducible TNFaFLGluc 293FRT/TO: TNF/PD1 [5]
373,45.1,–,–,–,52.7,34.3,21.4,> 25000,–,29.8,35.7,251,15,"CC(=O)N1CCC(Oc2ccc(N3CCC[C@@H]3c3csc(NC(=O)c4cccn4Cc4ccnc(F)c4)n3)cc2)CC1 [Compound A62, (R)-N-(4-(1-(4-((1-acetylpiperidin-4-yl)oxy)phenyl)pyrrolidin-2-yl)thiazol-2-yl)-1-((2-fluoropyridin-4-yl)methyl)-1H-pyrrole-2-carboxamide]",–,–,2,16.7
> 25000,2.55,> 25000,> 25000,> 25000,0.56,0.04,0.07,> 25000,2830,–,–,–,–,"CC(C)n1cnc(/C=C/c2csc(NC(=O)c3cccn3CC3CCOCC3)n2)c1 [Compound D7, (E)-N-(4-(2-(1-isopropyl-1H-imidazol-4-yl)vinyl)thiazol-2-yl)-1-((tetrahydro-2H-pyran-4-yl)methyl)-1H-pyrrole-2-carboxamide]",>8.8,>8.84,–,–
4550,64.6,–,–,–,6,23.1,12.7,7280,–,462,322,2910,205,"O=C(Nc1nc([C@H]2CCCN2c2ccc(OC3CCNCC3F)cc2)cs1)c1cccn1Cc1ccnc(F)c1 (stereo partly drawn) [Compound A107, N-(4-((2R)-1-(4-((3-fluoropiperidin-4-yl)oxy)phenyl)pyrrolidin-2-yl)thiazol-2-yl)-1-((2-fluoropyridin-4-yl)methyl)-1H-pyrrole-2-carboxamide]",–,–,2.3,14.2
